Laboratory results from publication PMC3954112 (Drug and alcohol dependence, 2013).
Where “and” joins values, the source holds several entries; their conditions need not be identical. Identical values can stand only once. Entries after “also recorded” stand apart in the source; their conditions may differ. Like-named read-outs stand apart in the source and are kept apart here.

Experiments:
[1] = ref Katz et al., 1999; cited from earlier work
D1 receptor = details: ref Katz et al., 1999; cited from earlier work
[2] = cited from earlier work; for effect on locomotor activity: ref Desai et al. (2005)
[3] = ref Abrahams et al., 1998; Katz et al., 1999; cited from earlier work
human D5 DA receptor = human D5 DA receptor (Homo sapiens, UniProt P21918); test: cAMP formation in HEK cells expressing D5 receptor; type: cell-based
[4] = test system: alpha1A, 1B, 2A, 2B, and 2C, and beta1 and 2 adrenergic receptors; test: Binding screen at 10 μM, adrenergic receptors
human DA D4 receptor = human DA D4 receptor (Homo sapiens, UniProt P21917); type: binding
[5] = molecular target: human dopamine D3 receptor (Homo sapiens, UniProt P35462); test: [35S]GTPγS binding assay, D3 receptor membranes; type: biochemical; details: 1 μM
CD-1 mice [6] = test: Conditioned place preference; type: in vivo, mouse; details: l-ICP 10 mg/kg i.p. by itself; pre-test -24 ± 46 s; P>0.05
[7] = test system: orphanin FQ/nociception; GABAA; histamine H1, 2, 3, and 4; muscarinic M1, 2, 3, 4, and 5; NMDA/MK801; test: Binding screen at 10 μM, other receptors
human DA D3 receptor = human DA D3 receptor (Homo sapiens, UniProt P35462); type: binding; details: read-out: Ki, D3; [3H]N-Methyl-spiperone; HEK293 membranes
human D1 DA receptor = human D1 DA receptor (Homo sapiens, UniProt P21728); test: cAMP formation in HEK cells expressing D1 receptor; type: cell-based
[8] = molecular target: human DA D1, D2, D3, D4 and D5 receptors; test: Dopamine receptor binding, statements grouped over subtypes
[9] = test system: dopamine, norepinephrine and serotonin transporters; test: Binding screen at 10 μM, monoamine transporters
CD-1 mice [10] = test: Repeated cocaine-induced locomotor sensitization; type: in vivo, mouse
CD-1 mice [11] = test: Spontaneous locomotor activity, non-habituated mice; type: in vivo, mouse; details: 10 mg/kg i.p.; for time of inhibition of spontaneous locomotor activity: mouse; for inhibition of locomotor activity (AUC) vs vehicle, 30-100 min: non-habituated mice
[12] = test system: More than 40 receptors, ion channels, and transporters; test: Screening for pharmacological targets by binding assays; details: screen at 10 μM
CD-1 mice [13] = test: Acute cocaine-induced locomotor hyperactivity
[14] = test system: 5-HT1A, 1B, 1E, 2A, 2C, 3, 4, 5A, 6, and 7 serotonin receptors; test: Binding screen at 10 μM, serotonin receptors
[15] = HPLC analysis of l-ICP and possible metabolites in mouse serum; type: in vivo; details: 20 mg/kg i.p., serum 30 min after injection, HPLC UV 280 nm
human DA D1 receptor = human DA D1 receptor (Homo sapiens, UniProt P21728); test: Competitive inhibition of [3H]SCH23390 binding, D1 receptor, HEK293 membranes; details: [3H]SCH23,390
[16] = molecular target: human dopamine D4 receptor (Homo sapiens, UniProt P21917); test: [35S]GTPγS binding assay, D4 receptor membranes; type: biochemical; details: 1 μM
[17] = test system: mu, delta, and kappa opioid receptors; test: Opioid receptor binding, [3H]diprenorphine; details: 10 μM
[18] = ref Sun et al., 2009; cited from earlier work
human DA D2 receptor = human DA D2 receptor (Homo sapiens, UniProt P14416); test: biochemical
D2 = details: 10 μM; ref Mantsch et al. (2007); cited from earlier work
human DA D5 receptor = human DA D5 receptor (Homo sapiens, UniProt P21918); test: biochemical; details: D5, [3H]SCH23,390, HEK293 membranes
rats = details: cited from earlier work; for reduction of locomotor activity over 2 h: 60 min pretreatment, rats, ref Mantsch et al., 2007
[19] = molecular target: D1-like dopamine receptors in calf striatal membranes; details: read-out: Ki, D1-like receptors, bovine striatal membranes; ref Xu et al. (1989); cited from earlier work
D1 = details: 10 μM; ref Mantsch et al. (2007); cited from earlier work
D3 = details: 10 μM; ref Mantsch et al. (2007); cited from earlier work
[20] = test system: patients addicted only to heroin; details: treatment for one month; ref Yang et al., 2008; cited from earlier work
[21] = l-ICP 1, 3 or 10 mg/kg i.p. + saline
[22] = l-ICP 3 and 10 mg/kg i.p., 10 min before cocaine 20 mg/kg i.p.

## Oc1cc2c(cc1O)C(c1ccccc1)CNCC2 (stereo not shown) [SKF 38393]
[1]
  effect on cocaine-induced hyperlocomotion: produced dose-related decreases in cocaine-induced hyperlocomotion
D1 receptor
  efficacy of a full agonist: ~ 50%
[2]
  effect on locomotor activity: produced limited changes in locomotor activity

## CN1CCc2cc(O)c(O)cc2C(c2ccccc2)C1 (stereo not shown) [SKF 75670]
[2]
  effect on locomotor activity: produced locomotor stimulation similar to full agonists

## C=CCN1CCc2cc(O)c(O)cc2C(c2ccccc2)C1 (stereo not shown) [SKF 77434]
[1]
  effect on cocaine-induced hyperlocomotion: produced dose-related decreases in cocaine-induced hyperlocomotion
[3]
  induction of CPP: nor did it cause CPP
D1 receptor
  efficacy of a full agonist: ~ 50%
[2]; ref Abrahams et al., 1998, Katz et al., 1999
  effect on locomotion: did not increase locomotion
[2]
  effect on locomotor activity: produced locomotor stimulation similar to full agonists

## COc1cc2c(cc1O)[C@@H]1Cc3ccc(OC)c(OC)c3CN1CC2 [l-ICP, l-isocorypalmine]
Human D5 DA receptor
  Emax, D5R, cAMP formation: […]
Human D5 DA receptor; read-out: EC50, D5R, cAMP formation
  EC50: 20 ± 4 nM
[4]
  binding to adrenergic receptors: did not bind significantly
Human DA D4 receptor; read-out: Ki, D4, [3H]N-Methyl-spiperone, HEK293 membranes
  Ki: […]
[5]
  antagonist effect on DA dose-response curve, [35S]GTPγS, D3: significantly shifted the DA-induced D2, D3 and D4 dose-response curves to the right without affecting maximal response
CD-1 mice [6]
  CPP score, post-test, l-ICP/saline: -137 ± 70 s
[7]
  binding to orphanin FQ, GABAA, histamine, muscarinic, NMDA/MK801 receptors: did not bind significantly
Human DA D3 receptor
  Ki: […]
Human D1 DA receptor; high D1 expression
  Emax, D1R (H), cAMP formation: […]
Human D1 DA receptor; low D1 expression (0.093±0.005 pmol/mg protein), NA: No activity up to 10 μM
  EC50, D1R (L), cAMP formation: […]
Human D1 DA receptor; moderate D1 expression
  Emax, D1R (M), cAMP formation: […]
Human D1 DA receptor; read-out: EC50, D1R (H), cAMP formation, high D1 expression (5.0±0.2 pmol/mg protein)
  EC50: […]
[8]; read-out: Ki values for D1 and D5 receptors, range over D1 and D5
  Ki: […]
[8]; read-out: Ki values for D2, D3 and D4 receptors, range over D2, D3 and D4
  Ki: […]
[9]
  binding to dopamine, norepinephrine and serotonin transporters: did not bind
CD-1 mice [10]; 10 mg/kg i.p., no cocaine, P=0.724 vs veh/sal
  effect of repeated l-ICP alone on locomotor activity, days 1-5: did not affect locomotor activity
CD-1 mice [10]; l-ICP 10 mg/kg i.p. 10 min before cocaine 20 mg/kg i.p., P=0.003 vs veh/cocaine
  effect on cocaine-induced hyperlocomotion, day 1: […]
CD-1 mice [10]; l-ICP 10 mg/kg i.p. once a day, P<0.001 vs veh/cocaine
  effect on cocaine-induced hyperlocomotion, day 5: […]
CD-1 mice [11]
  inhibition of locomotor activity (AUC) vs vehicle, 30-100 min: no significant inhibition; also recorded: had no effect
[12]
  binding to screened pharmacological targets (panel result): had significant affinities only for DA receptors
CD-1 mice [13]; l-ICP
  duration of attenuation of cocaine-induced hyperlocomotion: […]
CD-1 mice [13]; [21]
  effect on ambulatory activity in saline-treated habituated mice: had no effect
  effect on non-ambulatory repetitive activity in saline-treated habituated mice: had no effect
  effect on total activity in saline-treated habituated mice: did not reduce spontaneous locomotor activity; also recorded: had no effect
CD-1 mice [13]; l-ICP 3 and 10 mg/kg
  effect on acute cocaine-induced hyperlocomotion (summary): […]
CD-1 mice [13]; [22]
  effect on cocaine-induced ambulatory activity: dose-dependently decreased cocaine-induced hyperactivities
  effect on cocaine-induced non-ambulatory repetitive activity: dose-dependently decreased cocaine-induced hyperactivities
  effect on cocaine-induced total activity: dose-dependently decreased cocaine-induced hyperactivities
[14]
  binding to serotonin receptors: did not bind significantly
[15]
  compounds identified in serum / metabolism: […]
Human DA D1 receptor; read-out: Ki, D1 (H), D1R high expression (1 μg/ml tetracycline), mean ± s.e.m., 3 experiments
  Ki: […]
Human DA D1 receptor; read-out: Ki, D1 (L), D1R low expression (1 pg/ml tetracycline)
  Ki: […]
Human DA D1 receptor; read-out: Ki, D1, D1R moderate expression (6 ng/ml tetracycline)
  Ki: […]
[16]
  antagonist effect on DA dose-response curve, [35S]GTPγS, D4: significantly shifted the DA-induced D2, D3 and D4 dose-response curves to the right without affecting maximal response
[17]
  binding to mu, delta, and kappa opioid receptors: did not bind significantly

## COc1cc2c(cc1O)[C@@H]1Cc3ccc(O)c(OC)c3CN1CC2 [l-Stepholidine]
[18]
  blood-brain barrier penetration: penetrates the blood-brain barrier well

## COc1cc2c(cc1OC)[C@@H]1Cc3ccc(OC)c(OC)c3CN1CC2 [l-THP, l-tetrahydropalmatine]
Human DA D4 receptor
  Ki: > 1000 nM
Human DA D2 receptor
  Ki: > 1000 nM
D2
  inhibition of binding to D2: 87%
Human DA D5 receptor
  Ki: ~300 nM
rats; 3.75 mg/kg i.p.
  reduction of locomotor activity over 2 h: ~ 40%
rats; 7.5 mg/kg i.p.
  reduction of locomotor activity over 2 h: ~ 90%
rats; 10 mg/kg, ref Xi et al. (2007)
  reduction of locomotion over 2 h: ~ 80%
CD-1 mice [11]
  time of inhibition of spontaneous locomotor activity: > 90 min
  inhibition of locomotor activity (AUC) vs vehicle, 30-100 min: about 60%
[19]
  Ki: 1100 nM
D1
  inhibition of binding to D1: 97%
[12]
  binding to screened pharmacological targets (panel result): none of over 50 pharmacological targets bound l-THP with high affinity
D3
  inhibition of binding to D3: 83%
[20]
  craving and withdrawal symptoms during treatment: significantly reduced craving and withdrawal symptoms
  enhancement of abstinence rate three months after discharge: three-fold
